According to patent publication US11890279B2, “Quinolines that modulate SERCA and their use for treating disease” (Neurodon Corporation, priority 2020, dated 2024):

Tested on: APP-PS1 mice
Experiment: Aβ deposition, thioflavin S staining
Format: in vivo, mouse
Conditions: 10 mg/kg ip, 4 weeks, vs saline
Protocol: Mice were transcardially perfused with ice-cold PBS (3 mL) followed by 4% paraformaldehyde (5 mL). Brains were extracted and fixed overnight in 30% sucrose-cryoprotectant solution. Coronal hippocampal sections […] thick were cut on a cryostat and collected in TBS (0.1 M Tris, 0.9% saline, pH 7.4). Thioflavin S Staining: Free-floating hippocampal sections were washed with TBS (4×3 min). The sections were soaked in 0.5% thioflavin S (in 50/50 ethyl alcohol/distilled water, Sigma-Aldrich) for 10 min, followed by 2×3 min washes with 50% ethyl alcohol. Sections were washed again with TBS (2×3 min), mounted with minimal drying, and coverslipped with anti-fade mounting medium PVA-DABCO for microscopy. Confocal images of immunolabeled tissue were obtained using 4× and 10× objective lenses on the Olympus Fluoview confocal microscope. Density of amyloid plaques was quantified by averaging the percent area staining positive (thresholded above background staining, as determined by software parameters and experimenter confirmation) within the hippocampus and cortex from 3-5 sections from each experimental animal using MetaMorph Software (Molecular Devices). There were no significant differences in the intensity of background threshold values across animal strains or treatment conditions (p>0.05). The experimenter was blind to animal strain and treatment condition. […] Mice were ˜6 months of age.

Cc1ccc2cccc(NC(=O)c3ccc(OC(C)C)cc3)c2n1 [Compound A12, 4-Isopropoxy-N-(2-methylquinolin-8-yl)benzamide] was tested, and the “amyloid plaques stained with Thioflavin S” value was “reduced”.
